Source: patent publication EP3650451A1, “COMPOUNDS AND THEIR USES AS FLUORESCENT PROBES” (Consejo Superior de Investigaciones Cientificas, priority 2017, dated 2019)

Assays:
[1] = Photophysical characterization: absorption and fluorescence spectra; format: physicochemical; conditions: for λfl: Fluorescence peak wavelength: excitation at 490 nm; for φf: Quantum yield: reference PM567 in ethanol
Description: The photophysical characterization of probes 3 and 4 was carried out analyzing the corresponding absorption and fluorescence spectra in the UV-visible region of the spectrum.
Its photophysical behavior is dependent on the degree of substitution of the BODIPY, since the alkylation of the chromatophore induces sufficient steric hindrance to reduce the free rotation of the 8-mesityl group, a process that entails a significant reduction in fluorescence efficiency. Thus, probe 4 in water stands out for having a high molar absorption coefficient (3.8 × 10^4 M^-1 cm^-1 at 499 nm) and a very efficient fluorescence emission at 511 nm, with a quantum yield of up to 80%.

SCC38 cells [2] = test: Inhibition of mitochondrial staining by (R)-palmitoylcarnitine (CACT substrate), flow cytometry; format: cell-based, human; conditions: co-incubation, probe 50 nm, (R)-palmitoylcarnitine 100, 250 and 500 nM
Description: The SCC38 cells were co-incubated with the indicated concentrations of (R)-palmitoylcarnitine and 50 nM of 4 (A) or 50 nM of MitoTracker (B) before analyzing by flow cytometry. The data represent the mean fluorescence intensity (MFI) of the stained cells (upper panels) and representative images of the cytometry profiles (lower panels). • Fig. 7.
To test if CACT was in fact involved in the channeling of 4 to the mitochondrial matrix, we firstly studied the effect of (R)-(+)-palmitoylcarnitine, a natural CACT substrate, in cell labeling by 4.

SCC38 cells [3] = test: Co-localization by co-staining with MitoTracker Red, fluorescence microscopy of live cells; format: cell-based, human; conditions: compound 4 50 nM, MitoTracker® Red 25 nM, 30 minutes
Description: The cell assays were carried out on two human cell lines: SCC38 and HeLa. The SCC38 line is derived from human laryngeal epidermoid carcinoma patients, while HeLa, the first human cell line established in culture, is derived from cervical cancer. The culture medium used for both cell lines was DMEM (Dulbecco's Modified Eagle's Medium) supplemented with 10% of fetal bovine serum (FBS), 100 U/mL of penicillin, 200 µg/mL of streptomycin, 100 µmol/L of non-essential amino acids and 2 mmol/L of glutamine. The cultures were incubated at 37 °C and 5% of CO2.
These cell lines were stained with the fluorescent probes synthesized following the following protocol: 30,000-50,000 SCC38 cells were plated on 24-well glass-bottomed plates and cultured to 70% confluence. The culture medium was then removed from the well and washed at least three times with DMEM medium without additives. Next, 1 mL of DMEM and the corresponding fluorescent compound was added to the well. The cells were incubated at 37 °C for 30 minutes, after which the medium was removed and newly washed with DMEM. Lastly, complete medium was added and the cells were observed under the microscope. Microscopy analysis was performed using a Zeiss Axio Observer Z1 microscope with AxioCam MRM and ApoTome 2 (Carl Zeiss, Germany) with different 40X 63X oil immersion objectives. The cells were also stained with MitoTracker® Red CMXRos (Thermo Fisher), following the manufacturer's instructions, with the aim of carrying out comparative studies with the new fluorescent markers synthesized herein. Initially, both compounds 3 and 4 were used at a concentration of 50 nM, and staining time was also 30 minutes.
In order to confirm the specificity of the mitochondrial labeling, co-localization studies were carried out by co-staining with the commercial mitochondrial marker MitoTracker® Red in the cell line. Compound 4 was used at a concentration of 50 nM and MitoTracker® Red at 25 nM. Both compounds were added simultaneously and incubated for 30 minutes.

CC1=CC(C)=[N+]2C1=C(c1c(C)cc(C)cc1C)c1c(C)cc(C)n1[B-]21OC(=O)C[C@H](C[N+](C)(C)C)O1 (stereo partly shown) [Compound 4]
photostability [1]: high photostability
kfl: Radiative decay constant ([1]; Acetone): 1.27 10^8s^- 1
knr: Non-Radiative decay constant ([1]; Acetone): 0.16 10^8s^- 1
Δv: Stokes shift ([1]; Acetone): 504 cm⁻¹
εmax: Molar extinction coefficient at the absorption peak ([1]; Acetone): 5.1 × 10^4 (M^-1 cm^- 1)
λab: Absorption peak wavelength ([1]; Acetone): 501 nm
τ: Fluorescence lifetime ([1]; Acetone): 7.00 ns
λfl: Fluorescence peak wavelength ([1]; Acetone): 514 nm
φf: Quantum yield ([1]; Acetone): 0.89
kfl: Radiative decay constant ([1]; Acetonitrile): 1.21 10^8s^- 1
knr: Non-Radiative decay constant ([1]; Acetonitrile): 0.20 10^8s^- 1
Δv: Stokes shift ([1]; Acetonitrile): 469 cm⁻¹
εmax: Molar extinction coefficient at the absorption peak ([1]; Acetonitrile): 4.9 × 10^4 (M^-1 cm^- 1)
λab: Absorption peak wavelength ([1]; Acetonitrile): 500 nm
τ: Fluorescence lifetime ([1]; Acetonitrile): 7.12 ns
λfl: Fluorescence peak wavelength ([1]; Acetonitrile): 512 nm
φf: Quantum yield ([1]; Acetonitrile): 0.86
kfl: Radiative decay constant ([1]; Chloroform): 1.36 10^8s^- 1
knr: Non-Radiative decay constant ([1]; Chloroform): 0.22 10^8s^- 1
Δv: Stokes shift ([1]; Chloroform): 424 cm⁻¹
εmax: Molar extinction coefficient at the absorption peak ([1]; Chloroform): 4.8 × 10^4 (M^-1 cm^- 1)
λab: Absorption peak wavelength ([1]; Chloroform): 504 nm
τ: Fluorescence lifetime ([1]; Chloroform): 6.32 ns
λfl: Fluorescence peak wavelength ([1]; Chloroform): 514 nm
φf: Quantum yield ([1]; Chloroform): 0.86
kfl: Radiative decay constant ([1]; Ethanol): 1.22 10^8s^- 1
knr: Non-Radiative decay constant ([1]; Ethanol): 0.18 10^8s^- 1
Δv: Stokes shift ([1]; Ethanol): 427 cm⁻¹
εmax: Molar extinction coefficient at the absorption peak ([1]; Ethanol): 5.1 × 10^4 (M^-1 cm^- 1)
λab: Absorption peak wavelength ([1]; Ethanol): 502 nm
τ: Fluorescence lifetime ([1]; Ethanol): 7.10 ns
λfl: Fluorescence peak wavelength ([1]; Ethanol): 513 nm
φf: Quantum yield ([1]; Ethanol): 0.87
kfl: Radiative decay constant ([1]; Water): 1.14 10^8s^- 1
knr: Non-Radiative decay constant ([1]; Water): 0.23 10^8s^- 1
Δv: Stokes shift ([1]; Water): 470 cm⁻¹
εmax: Molar extinction coefficient at the absorption peak ([1]; Water): 3.8 × 10^4 (M^-1 cm^- 1)
λab: Absorption peak wavelength ([1]; Water): 499 nm
τ: Fluorescence lifetime ([1]; Water): 7.30 ns
λfl: Fluorescence peak wavelength ([1]; Water): 511 nm
φf: Quantum yield ([1]; Water): 0.83
tendency towards H- or J- type aggregation ([1]; concentrations as high as 10^-4 M): not exhibit any tendency towards H- or J- type aggregation
fluorescence emission (wavelength) ([1]; in water): 511 nm
quantum yield ([1]; in water): up to 80%
molar absorption coefficient ([1]; in water, at 499 nm): 38000 M⁻¹ cm⁻¹
effect of (R)-palmitoylcarnitine on fluorescence intensity (SCC38 cells [2]): concentration-dependent reduction of fluorescence intensity
location of the stain in the mitochondria (SCC38 cells [3]; co-staining): preferably located in its interior (the mitochondrial matrix)
co-localization with MitoTracker® Red (SCC38 cells [3]; added simultaneously): good co-localization
cytotoxic effects (SCC38 cells [3]; simultaneous co-staining): without interferences or cytotoxic effects
